Patent publication US11504371B2, “Quinazolines compound, preparation method therefor and application thereof” (Beijing Normal University, priority 2017, dated 2022)
“And” between values parts separate entries of the source, which are not always exact repeats. Equal entries are not always repeated. “Also recorded” adds a separate entry of the source. Marks after values point to notes of the source that are not given here.

How the values were obtained:
cells A549 = experiment: Intracellular reactive oxygen species (fluorescence spectrometer); format: cell-based, human; settings: A549 after treatment
Text: A part of the compound of anilino polyethylene glycol ether cycloquinazoline substituted with a substituted arylmethyl heteroatomic group represented by formula (I) are studied by detecting cell mitochondrial membrane potential and intracellular reactive oxygen species.

[1] = system: human prostate cancer cell line (DU145); experiment: MTT assay, tumor cell proliferation inhibition, DU145; format: cell-based; settings: Homo sapiens, DU-145; DU145, MTT, 72 h; read-out: Tumor inhibition rate (IC50)
Method: (§1) Cell lines to be tested: human hepatoma cell line (HepG2), human lung cancer cell line (A549), human prostate cancer cell line (DU145), human breast cancer cell line (MCF-7), human neuroblastoma cell line (SH-SY5Y), human gastric mucosal cell line (Ges-1) and human embryonic lung fibroblast cell line (CCC-HPF-1) (the cells to be tested were purchased from the Cancer Hospital of Chinese Academy of Medical Sciences).
(§2) The cells in logarithmic growth phase were treated to prepare a single cell suspension, with the cell density adjusted, which was seeded in a 96-well cell culture plate. About 2×10^3 cells were contained in 100 μL per well, and cultured in a cell incubator at 37° C., 5% CO2, and saturated humidity for 24 h. The used medium was aspirated and abandoned, and then 100 μL of the target compound in different concentrations (0.1 μM-100 μM) were added for drug treatment. Five duplicate wells were prepared for each concentration. The background blank well, negative control well and positive control well were also prepared. All the wells were placed in a cell culture incubator at 37° C., 5% CO2, saturated humidity for another 72 h. Then, each well was added with 10 μL of MTT solution (5 mg/mL) and incubated for another 4 h. After that, each well was added with 100 μL of 10% SDS-0.1% NH4Cl (10% SDS purchased from Beijing Mengyimei Biotechnology Co., Ltd.) solution, and incubated at 37° C. for 10 h in the dark. Then, the absorbance OD was measured at 570 nm using a microplate reader at a reference wavelength of 650 nm. Cell proliferation inhibition was calculated according to the following formula: % inhibition=(ODcontrol−ODtreat)(ODcontrol−ODblank)×100. […] Each group was performed at least three times in parallel.

A549 cells = experiment: Cell cycle experiment (PI staining, flow cytometer); format: cell-based, human; settings: for Cell proportion, G0/G1 / Cell proportion, G2/M / Cell proportion, S: 48 h
Method: Experiment procedure: A549 cells in logarithmic growth phase (purchased from the Cancer Hospital of Chinese Academy of Medical Sciences) were seeded into 6-well cell culture plates, adjusted to 5×10^5 cells per well, and cultured in an incubator at 37° C., 5% CO2, and saturated humidity for 24 h. The used medium was discarded. The cells were treated with the target compounds in different concentrations for 48 h, and grouped to an administration group and a control group (non-administered). The cells were digested with 0.25% trypsin to form a single cell suspension, centrifuged at 1500 r/min for 5 min. The supernatant was discarded, and the cells were collected. The cells were washed twice with precooled PBS buffer, centrifuged at 1500 r/min for 5 min, added to 5 mL of precooled 70% ethanol, and placed at 4° C. for at least 24 h. After centrifugation, the supernatant was discarded, and the cells were washed twice with PBS and collected by centrifugation. The cells were suspended in 400 μL PBS, added with 30 μL of RNaseA (purchased from Corning Inc., USA) at the concentrations from 1 mg/mL to 50 μg/mL, and incubated at 37° C. for 30 min. The centrifuge tube was then inserted into an ice bath to stop digestion. After the tube was cooled, 50 μL of PI staining solution (500 μg/mL) (purchased from Corning Inc., USA) was added to a final concentration of 50 μg/mL. The tube was immersed in an ice bath to perform straining in the dark for 30 min-40 min, filtered through a 300 mesh nylon mesh, and tested by flow cytometer (FACS Vantage SE: BD, USA).

[2] = system: human hepatoma cell line (HepG2); experiment: MTT assay, tumor cell proliferation inhibition, HepG2; format: cell-based; settings: Homo sapiens, 72 h, read-out: Tumor inhibition rate (IC50)
Method: as §1, §2

[3] = system: human breast cancer cell line (MCF-7); experiment: MTT assay, tumor cell proliferation inhibition, MCF-7; format: cell-based; settings: Homo sapiens, MCF7; MCF-7, MTT, 72 h; read-out: Tumor inhibition rate (IC50)
Method: as §1, §2

A549 cancer cells = experiment: Nude mice bearing A549 cancer cells; format: in vivo
Method: In the present invention, the antitumor activity was evaluated by intraperitoneal injection to nude mice bearing different tumors, for compounds 3 (N-(4-((4-nitrophenyl)methoxy)phenyl)-6,7-(benzo-9-crown-3)-4-quinazolinamine) and 23 (compounds No. are shown in Table 1) (N-(3-((4-trifluoromethylphenyl)methoxy)phenyl)-6,7-(benzo-12-crown-4)-4-quinazolinamine) of formula (I).
Firstly, a tumor-bearing nude mouse model was established. 0.2-1 mL of cell suspension was inoculated subcutaneously into the left lower limb of nude mice, and the drug was administered when the tumor volume reached about 100 mm^3. Then, grouping and administration were performed; the nude mice (5 mice in each group) were randomly divided into several groups, such as ultra-pure water control group (blank), positive drug control group, and different dosage treatment groups. The nude mice in each group were administered continuously for 40 days. The nude mice were weighted every other day during the administration. Tumor volumes were measured and calculated. Then tumor growth curve, tumor inhibition curve (see FIGS. 1 and 3) and weight change curve (see FIGS. 2 and 4) were drawn. […]. Among those, docetaxel suffers from high cumulative neurotoxic toxicity and drug resistance although it has the best effect. Comparing to docetaxel, compound 23 has a much lower toxicity and drug resistance, and thus has a great development prospect. […]

cell membrane = experiment: Cell membrane permeability test (Hoechst 33342 fluorescence); format: cell-based; settings: Hoechst 33342 fluorescence observation
Text: One of the anilino polyethylene glycol ether cycloquinazoline substituted with a substituted arylmethyl heteroatomic group of formula (I), N-(4-((4-nitrophenyl)methoxy)phenyl)-6,7-(benzo-9-crown-3)-4-quinazolinamine, is studied by cell membrane permeability test. […] As the concentration of the target compound increases, the permeability is improved and the cells undergo apoptosis.

[4] = system: human lung cancer cell line (A549); experiment: MTT assay, tumor cell proliferation inhibition, A549; format: cell-based; settings: for IC50: Homo sapiens, A549, MTT, 72 h, read-out: Tumor inhibition rate (IC50)
Method: as §1, §2

[5] = system: human neuroblastoma cell line (SH-SY5Y); experiment: MTT assay, tumor cell proliferation inhibition, SH-SY5Y; format: cell-based; settings: Homo sapiens, SH-SY5Y, 72 h, read-out: Tumor inhibition rate (IC50)
Method: as §1, §2

[6] = system: tumor cell strains HepG2, A549, MCF-7, DU145 and SH-SY5Y; experiment: MTT assay, summary over the five tumor cell lines; format: cell-based, human; settings: HepG2, A549, MCF-7, DU145, SH-SY5Y
Method: as §1
The cells in logarithmic growth phase were treated to prepare a single cell suspension, with the cell density adjusted, which was seeded in a 96-well cell culture plate. About 2×10^3 cells were contained in 100 μL per well, and cultured in a cell incubator at 37° C., 5% CO2, and saturated humidity for 24 h. The used medium was aspirated and abandoned, and then 100 μL of the target compound in different concentrations (0.1 μM-100 μM) were added for drug treatment. Five duplicate wells were prepared for each concentration. The background blank well, negative control well and positive control well were also prepared. All the wells were placed in a cell culture incubator at 37° C., 5% CO2, saturated humidity for another 72 h. Then, each well was added with 10 μL of MTT solution (5 mg/mL) and incubated for another 4 h. After that, each well was added with 100 μL of 10% SDS-0.1% NH4Cl (10% SDS purchased from Beijing Mengyimei Biotechnology Co., Ltd.) solution, and incubated at 37° C. for 10 h in the dark. Then, the absorbance OD was measured at 570 nm using a microplate reader at a reference wavelength of 650 nm. Cell proliferation inhibition was calculated according to the following formula: % inhibition=(ODcontrol−ODtreat)(ODcontrol−ODblank)×100. IC50 value, i.e., 50% proliferation inhibition concentration, was calculated by SPSS 16.0 software. Each group was performed at least three times in parallel.
The inhibitory activities of 35 target compounds against tumor cell strains HepG2, A549, MCF-7, DU145 and SH-SY5Y were tested by MTT assay (Table 1). Some compounds with optimal antitumor activity were selected.

HepG2 cancer cells = experiment: Nude mice bearing HepG2 cancer cells
Method: Firstly, a tumor-bearing nude mouse model was established. […] Then, grouping and administration were performed; the nude mice (5 mice in each group) were randomly divided into several groups, such as ultra-pure water control group (blank), positive drug control group, and different dosage treatment groups. The nude mice in each group were administered continuously for 40 days. The nude mice were weighted every other day during the administration. Tumor volumes were measured and calculated.

**Q.** What does the source list for `O=[N+]([O-])c1ccc(COc2ccc(Nc3ncnc4cc5c(cc34)OCCOCCO5)cc2)cc1` [Compound 3, N-(4-((4-nitrophenyl)methoxy)phenyl)-6,7-(benzo-9-crown-3)-4-quinazolinamine]?
**A.** intracellular reactive oxygen species (ROS) (cells A549): increased intracellular reactive oxygen species (ROS) and apoptosis; IC50 [1]: > 100 µM; cell cycle block (in words) (A549 cells; A549, 0-40 μM): can block A549 in G0/G1 phase; Cell proportion, G0/G1 (A549 cells; A549, 5 μM): 84.51 ± 0.32 ^a %; Cell proportion, G2/M (A549 cells; A549, 5 μM): 3.06 ± 0.12 ^ %; Cell proportion, S (A549 cells; A549, 5 μM): 12.42 ± 0.10%; Cell proportion, G0/G1 (A549 cells; A549, 10 μM): 85.58 ± 0.44 ^a %; Cell proportion, G2/M (A549 cells; A549, 10 μM): 3.05 ± 0.19 ^ %; Cell proportion, S (A549 cells; A549, 10 μM): 11.39 ± 0.64%; Cell proportion, G0/G1 (A549 cells; A549, 20 μM): 87.23 ± 0.31 ^a %; Cell proportion, G2/M (A549 cells; A549, 20 μM): 1.41 ± 0.05 ^a %; Cell proportion, S (A549 cells; A549, 20 μM): 11.68 ± 0.26%; Cell proportion, G0/G1 (A549 cells; A549, 40 μM): 90.08% and 90.08 ± 0.62 ^a %; Cell proportion, G2/M (A549 cells; A549, 40 μM): 2.04 ± 0.14 ^a %; Cell proportion, S (A549 cells; A549, 40 μM): 7.90 ± 0.50 ^a %; IC50 [2]: > 100 µM; IC50 [3]: 39.7 µM; tumor inhibition (A549 cancer cells; 60 mg/Kg, FIG. 1): significant inhibited; body weight (A549 cancer cells; 60 mg/Kg, FIG. 2): not decreased significantly; tumor inhibitory effect (tumor volume, FIG. 1) (A549 cancer cells; nude mice bearing A549, intraperitoneal injection): remarkable tumor inhibitory effect; also recorded: high inhibitory effect; inhibitory activity against A549 compared with gefitinib (A549 cancer cells; same dose 45 mg/Kg, FIG. 1): significantly higher; effect on cell membrane permeability (cell membrane): can increase the permeability of the cell membrane; IC50 [4]: 6.62 µM; inhibitory activity on A549 (in words) ([4]; MTT, summary of Table 1): strong specific inhibitory activity; IC50 [5]: 55.2 µM

**Q.** Which results are given for `FC(F)(F)c1ccc(COc2ccc(Nc3ncnc4cc5c(cc34)OCCOCCOCCOCCO5)cc2)cc1` [Compound 35, N-(4-((4-trifluoromethylphenyl)methoxy)phenyl)-6,7-(benzo-15-crown-5)-4-quinazolinamine]?
**A.** inhibitory effect on proliferation of the five tumor cells (in words) [6]: good inhibitory effect on proliferation of at least three of the five tumor cells; also recorded: high anticancer activity on all the five tumor cells; IC50 [1]: 8.8 µM; IC50 [2]: 3.34 µM; IC50 [3]: 10 µM; IC50 [4]: 8.56 µM; IC50 [5]: 2.14 µM; body weight of the mice (FIG. 6) (HepG2 cancer cells; 20 mg/Kg, single agent): significantly increased; weight loss of nude mice (FIG. 6) (HepG2 cancer cells; 40 mg/Kg, single agent): weight loss of nude mice is similar; tumor growth (tumor volume, FIG. 5) (HepG2 cancer cells; nude mice bearing HepG2, single agent): can slow down the tumor growth with increasing drug dose; melting point: 197 to 198 °C
